From article PMC5969224, “Lysine‐241 Has a Role in Coupling 2OG Turnover with Substrate Oxidation During KDM4‐Catalysed Histone Demethylation” (Chembiochem, 2018)
Changes are numbered by the printed parent chain. Entries after “also recorded” stand apart in the source; their conditions may differ. Square brackets hold non-standard residues; d marks the D form. Ends that are not written are not given here. Lys(Me3) = C[N+](C)(C)CCCC[C@H](N)C(=O)O

Legend:
[1] = molecular target: T1, K241A KDM4A (Homo sapiens, UniProt O75164, K241A); test: 1H NMR substrate-uncoupled turnover of 2OG to succinate, K241A KDM4A; format: biochemical
T1 construct: two recombinant variants of KDM4A (residues 1–359) in Escherichia coli BL21(DE3) cells; His6 (N); made in house; host or cells: Escherichia coli BL21(DE3)
T1 sequence (O75164 1-359 K241A): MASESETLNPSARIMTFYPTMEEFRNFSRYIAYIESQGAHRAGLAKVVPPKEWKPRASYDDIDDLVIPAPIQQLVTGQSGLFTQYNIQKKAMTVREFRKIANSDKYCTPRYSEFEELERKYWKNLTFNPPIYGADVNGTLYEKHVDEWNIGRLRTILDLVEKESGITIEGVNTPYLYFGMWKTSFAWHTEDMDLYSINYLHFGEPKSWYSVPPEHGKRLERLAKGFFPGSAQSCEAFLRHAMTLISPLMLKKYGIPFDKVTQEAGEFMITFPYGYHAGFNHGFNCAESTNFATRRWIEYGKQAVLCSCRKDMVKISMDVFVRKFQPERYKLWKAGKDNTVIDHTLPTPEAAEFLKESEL
Description: (§1) Samples containing either WT or K241A (20.5 μM), an excess of 2OG (2 mM), ascorbate (1 mM), and ferrous iron (100 μM) in ammonium formate buffer (50 mM, pH 7.5) were subjected to ^1H NMR analysis at 1.5 min intervals over a 30‐min reaction. […] Experiments were then conducted in the presence of a histone H3 eight‐residue fragment peptide containing N ^ϵ‐trimethyllysine at position 9 (H3K9me3, sequence: ARKme3STGGK).
(§2) 1H NMR activity and inhibition assays: 20.5 µM KDM4A WT or KDM4A K241A was
(§3) mixed with 2 mM 2OG, 1 mM sodium L-ascorbate, and 100 µM ferrous iron (source
(§4) (NH4)2FeSO4.6H2O), in 50 mM ammonium formate buffer pH 7.5 10 % v/v D2O in an Ep-
(§5) pendorf tube, before being immediately transferred to an NMR tube and subjected to 1H NMR
(§6) analysis (700 MHz). For samples containing peptide substrate (sequence: ARKme3STGGK),
(§7) the peptide concentration was 300 µM. For inhibition assays, samples contained 100 µM in-
(§8) hibitor (JIB-04 or NOG) and the spectra were acquired after 35 min. Note: residual protein
(§9) buffer was also present. NMR analyses were carried out on a Bruker AVIII 700 spectrometer
(§10) equipped with an inverse TCI 1H/13C/15N cryoprobe and running TOPSPIN 3.2 software. The
(§11) deuterium signal was used as an internal lock signal and 1H chemical shifts are reported in
(§12) ppm relative to the solvent HDO resonance (δH 4.7 ppm).

[2] = molecular target: T2, WT KDM4A (Homo sapiens, UniProt O75164); conditions: ref 12b; cited from earlier work
T2 sequence (O75164 1-359): T1 sequence (O75164 1-359 K241A) with A241K
Description: Studies were then carried out to evaluate the ability of the two KDM4A proteins to catalyse the demethylation of a histone peptide substrate.

[3] = molecular target: T2, WT KDM4A; test: 1H NMR substrate-uncoupled turnover of 2OG to succinate, WT KDM4A; format: biochemical; parameters: two recombinant variants of KDM4A (residues 1–359) in Escherichia coli BL21(DE3) cells; His6 (N); made in house; host or cells: Escherichia coli BL21(DE3); conditions: WT 20.5 μM, 2OG 2 mM, ascorbate 1 mM, Fe(II) 100 μM, 50 mM ammonium formate pH 7.5, no peptide; 1H NMR 700 MHz, 1.5 min intervals over 30 min
Description: Samples containing either WT or K241A (20.5 μM), an excess of 2OG (2 mM), ascorbate (1 mM), and ferrous iron (100 μM) in ammonium formate buffer (50 mM, pH 7.5) were subjected to ^1H NMR analysis at 1.5 min intervals over a 30‐min reaction.
as §2, §3, §4, §5, §9, §10, §11
ppm relative to the solvent HDO resonance (δH 4.7 ppm). The solvent signal was reduced by

[4] = molecular target: T1, K241A KDM4A; test: 1H NMR inhibition assay of uncoupled 2OG turnover, K241A KDM4A; format: biochemical; conditions: K241A KDM4A 20.5 μM; inhibitor 100 μM; 2OG 2 mM; spectra after 35 min; pH 7.5
Description: as §1, §2, §3, §4, §5, §6, §7, §8, §9, §10, §11, §12

[5] = molecular target: T1, K241A KDM4A; test: 1H CPMG NMR binding assay, K241A KDM4A; conditions: for binding to K241A versus WT KDM4A: CPMG NMR, K241A compared with WT
Description: as §1
(§13) NMR analyses were carried out on a Bruker AVIII 700 spectrometer
as §10, §11, §12
(§14) 1H CPMG NMR binding assays: Typical experimental parameters for Carr-Purcell-Mei-
(§15) boom-Gill (CPMG) NMR spectroscopy were as follows: total echo time, 40 ms; relaxation
(§16) delay, 2 s; and number of transients, 264. The PROJECT-CPMG sequence was applied
(§17) (90°x−[τ−180°y−τ−90°y−τ−180°y−τ]n−acq).[4] Water suppression was achieved by presatura-
(§18) tion. Protein (KDM4A WT or KDM4A K241A) was titrated into an assay mixture of 40 µM

[6] = molecular target: T1, K241A KDM4A; conditions: mixed-mode inhibition of K241A; cited from earlier work
Description: The overall MS, NMR spectroscopy and fluorescence polarisation studies imply that K241 has a role in KDM4A catalysis. […] Succinate formation by the K241A variant is stimulated by a histone fragment peptide, and a fluorescently labelled histone peptide bind ...

[7] = molecular target: T2, WT KDM4A; test: 1H NMR inhibition assay of uncoupled 2OG turnover, WT KDM4A; format: biochemical; parameters: two recombinant variants of KDM4A (residues 1–359) in Escherichia coli BL21(DE3) cells; His6 (N); made in house; host or cells: Escherichia coli BL21(DE3); conditions: WT KDM4A 20.5 μM; inhibitor 100 μM; 2OG 2 mM; spectra after 35 min; pH 7.5
Description: as §1, §2, §3, §4, §5, §6, §7, §8, §9, §10, §11, §12

[8] = molecular target: T2, WT KDM4A; test: 1H CPMG NMR binding assay, WT KDM4A; parameters: two recombinant variants of KDM4A (residues 1–359) in Escherichia coli BL21(DE3) cells; His6 (N); made in house; host or cells: Escherichia coli BL21(DE3); conditions: protein titrated into 40 µM JIB-04, 100 µM Fe(II), 50 mM ammonium formate pH 7.5, 10 % D2O, 600 MHz CPMG, quadratic fit, read-out: K D (JIB-04), provisional
Description: as §1, §13, §10, §11, §12, §14, §15, §16, §17, §18

[9] = molecular target: T1, K241A KDM4A; test: 1H NMR succinate formation in presence of H3 eight-residue peptide, K241A KDM4A; format: biochemical; conditions: K241A KDM4A 20.5 μM; peptide 300 µM; 2OG 2 mM; pH 7.5
Description: as §1, §2, §3, §4, §5, §6, §7, §8, §9, §10, §11, §12

[10] = molecular target: T2, WT KDM4A; test: 1H NMR succinate formation in presence of H3 eight-residue peptide, WT KDM4A; format: biochemical; parameters: two recombinant variants of KDM4A (residues 1–359) in Escherichia coli BL21(DE3) cells; His6 (N); made in house; host or cells: Escherichia coli BL21(DE3); conditions: peptide 300 µM
Description: as §1, §2, §3, §4, §5, §6, §7, §8, §9, §10, §11, §12

[11] = molecular target: T1, K241A KDM4A; test: MALDI-TOF MS demethylation assay, K241A KDM4A; format: biochemical; conditions: K241A KDM4A 1 μM, peptide 100 μM, 2OG 100 μM, ascorbate 100 μM, Fe(II) 10 μM, 50 mM HEPES pH 7.5, 40 min, 37 °C
Description: Initially, we produced two recombinant variants of KDM4A (residues 1–359) in Escherichia coli BL21(DE3) cells; a truncated wild‐type sequence (KDM4A WT), or a variant with an alanine in place of Lys241 (K241A KDM4A). Studies were then carried out to evaluate the ability of the two KDM4A proteins to catalyse the demethylation of a histone peptide substrate.
MALDI-TOF MS activity assays: 1 µM WT KDM4A or KDM4A K241A was incubated
with 100 µM disodium 2-oxoglutarate (2OG), 100 µM sodium L-ascorbate, 10 µM ferrous iron
(source (NH4)2FeSO4.6H2O) and 100 µM of 15-residue H3 fragment peptide containing the
requisite trimethyllysine mark (Table S1) in 50 mM HEPES buffer pH 7.5 for 40 min at 37 °C.
Assays were quenched with an equal vol-
ume of methanol, and the extent of the reaction determined using MALDI-TOF mass spec-
trometry (MS). Data were analysed using MASSLYNX 4.0 (Waters).

O=C(O)CCC(=O)C(=O)O [2OG, 2‐oxoglutarate]
initial succinate formation rate ([1]; K241A 20.5 μM, 2OG 2 mM, ascorbate 1 mM, Fe(II) 100 μM, 50 mM ammonium formate pH 7.5, no peptide, 1H NMR 700 MHz, 1.5 min intervals over 30 min): 1.55 µM/min
succinate formation rates, WT versus K241A ([1]; in the absence of peptide, WT and K241A KDM4A compared): near identical
K M (2OG) [2]: 26 ± 7 µM
initial succinate formation rate [3]: 1.35 µM/min

Clc1ccc(N/N=C(\c2ccccc2)c2ccccn2)nc1 [JIB‐04]
inhibition of uncoupled 2OG turnover [4]: inhibition was more pronounced
binding to K241A versus WT KDM4A [5]: preferential binding of JIB‐04 to the K241A variant over the WT enzyme; also recorded: binding to K241A appears stronger
binding to K241A versus WT KDM4A ([5]; listed as JIB-04): Binding appears stronger to the K241 variant than KDM4A WT
Kd ([5]; K241A KDM4A, protein titrated into 40 µM JIB-04, 100 µM Fe(II), 50 mM ammonium formate pH 7.5, 10 % D2O, 600 MHz CPMG, quadratic fit, read-out: K D (JIB-04), provisional): 7 ± 2 µM
mode of inhibition [6]: mixed‐mode inhibition
inhibition of uncoupled 2OG turnover [7]: inhibition was more pronounced
Kd [8]: 22 ± 5 µM

O=C(O)CNC(=O)C(=O)O [N‐oxalylglycine]
inhibition of uncoupled 2OG turnover [4]: inhibited
inhibition of uncoupled 2OG turnover [7]: inhibited

AR[Lys(Me3)]STGGK [histone H3 eight‐residue fragment peptide containing N ϵ‐trimethyllysine at position 9 (also called H3K9me3)]
effect of peptide on succinate formation rate [9]: markedly increased
effect of peptide on succinate formation rate ([10]; WT KDM4A 20.5 μM, 2OG 2 mM, pH 7.5): markedly increased
stimulation of succinate formation, WT versus K241A ([10]; WT compared with K241A): Stimulation of succinate formation was greater for WT than for K241A KDM4A; also recorded: Succinate formation is stimulated by H3K9me3 peptide, but more readily with WT KDM4A

TPVKKKAR[Lys(Me3)]SAGAAK [H1.4K26 peptide]
demethylation of histone peptide [11]: low‐level demethylation
